Broadly, the EC50 is the concentration needed to bring the measured effect to its halfway point. By CC50 is commonly meant the concentration giving 50% cytotoxicity. A low value points to greater toxicity to the cells. For orientation: IC50 means the midpoint of a concentration-inhibition curve.

One data set concerns HIV-1(IIIB). The experiment in a line: inhibition of virus-induced cytopathicity in MT-4 cells, HIV-1 (IIIB). The format is cell-based. Particulars: for EC50: MT-4 cells, viral cytopathic effect, 5 days post-infection. (Protection from cytopathic effect is a common read-out in antiviral testing.)
For another data set, the system named is HIV-1 L1. The experiment in a line: inhibition of virus-induced cytopathicity in MT-4 cells, HIV-1 clinical isolate L1. The format is cell-based. Particulars: Human immunodeficiency virus 1, MT4, 120 h, read-out: EC50 HIV-1 L1.
The next data set deals with HIV-2 (ROD). In words: inhibition of virus-induced cytopathicity in MT-4 cells, HIV-2 (ROD). The format is cell-based. Particulars: Human immunodeficiency virus 2, MT4, 120 h, read-out: EC50 HIV-2 ROD.
Data set [1] can be described thus: cytotoxicity, viability of mock-infected cells. The format is cell-based. Particulars: human, viability of mock-infected MT-4 cells. The procedure:
Cytotoxicity of these compounds was determined in parallel by measuring the viability of mock-infected MT-4 or C8166 cells 5 days post-infection. The antiviral activity and cytotoxicity data, including average values and standard deviations for at least two separate experiments, are depicted in Table 2, wherein: CC50 represents the 50% cytotoxic concentration, i.e. the concentration that reduces by 50% the viability of MT-4 cells.

The subject of another data set is HIV-1 NL43/DS5000. The experiment in a line: microbe, parasite or virus in culture. The format is cell-based.
A further data set deals with HIV-1 NL43/AMD3100. The experiment in a line: microbe, parasite or virus in culture. The format is cell-based.
The test system of another data set is HIV-1 L2. The format is cell-based.
In a further data set the test system is HIV-1 L4. The format is cell-based.
A further data set concerns HIV-1. The experiment in a line: combined inhibitory effect on HIV-1-induced cytopathic effect, isobologram method. Particulars: combination with nevirapine, MT-4 cells, FIG. 4. The format is cell-based. As for the experimental part:
The antiviral effect of compound H was tested in combination with the nucleoside reverse transcriptase inhibitor zidovudine, the non-nucleoside reverse transcriptase inhibitor nevirapine and the protease inhibitor nelfinavir.
The combined inhibitory effect on HIV-1-induced cytopathic effect was evaluated by the isobologram method, as previously described by Elion et al. in J. Biol. Chem. (1954) 208:477-488 and by Baba et al. in Antimicrob. Agents Chemother. (1984) 25:515-517.
EC50, as defined herein before, was used for calculating the fractional inhibitory concentration (hereinafter referred as FIC). When the minimum FIC index corresponding to the FIC of combined compounds (e.g., FICx+FICy) is equal to 1.0, the combination is said to be additive; when it is beween 1.0 and 0.5, the combination is by definition said to be subsynergistic, and when it is <0.5, the combination is by definition said to be synergistic. When the minimum FIC index is between 1.0 and 2.0, the combination is said to be subantagonistic and, when it is >2.0, the combination is defined as antagonistic.

Data set [2] concerns HIV-1-derived vectors pseudotyped with the VSV-G envelope. The experiment in a line: microbe, parasite or virus in culture. Particulars: Human immunodeficiency virus 1, HEK-293T, read-out: EC50 inhibition of transduction. The format is cell-based.
For data set [3], the target named is T1, Recombinant HIV-1 RT (HXB2) (Human immunodeficiency virus type 1 group M subtype B, UniProt P04585).
T1 construct: Recombinant HIV-1 RT (HXB2) was obtained as described by Jonckheere et al; made in house
In words: inhibition of HIV-1 reverse transcriptase enzymatic activity. The format is biochemical. From the text: Poly(rC).oligo(dG) and poly (rA).oligo(dT) were used as template-primers, and 8-[^3H]-dGTP and [^3H]-dTTP were used as radiolabelled substrates.

In another data set the target is T2, integrase (Human immunodeficiency virus type 1 group M subtype B, UniProt P04585).
T2 construct: encoding HIV-1 IN (strain HTLV III); made in house; host or cells: E. coli PC1 (BL21(DE3)(pLysS) ΔendA::TcR)
The experiment in a line: kinetic cleavage assay, conversion of initial stable complex into cleaved product. The format is biochemical, HIV-1. Particulars: in the presence of 50 μM compound, added after preincubation with dextran sulfate. The procedure: When dextran sulfate with a molecular weight of 5,000 was added at a final concentration of 0.3 μM, further binding of integrase to the oligonucleotide was blocked. At several periods of time, 5 μl aliquots were taken and the reaction was stopped using 5 μl formamide loading buffer (having the same composition as above). The rate constant for the conversion of ISC into the cleaved product can be calculated using the formula: A-Be^−kt. In order to examine the inhibitory effect of compound H on 3′-processing, we repeated the same experiment in the presence of 50 μM compound (added after preincubation, together with dextran sulfate) and compared the rate constants: In the absence of compound H, it was calculated at 0.152±0.038 min^−1 in its presence at 0.147±0.025 min^−1. This quite similar value rules out that compound H directly affects the catalysis of 3′-processing.

A further data set deals with T3, HIV-1 integrase (Human immunodeficiency virus type 1 group M subtype B, UniProt P04585).
T3 construct: HIV-1 integrase (100 μl of a 33 μM solution)
In words: HIV-1 integrase binding assay, biosensor (BIAcore). Particulars: preincubation of integrase with 93 μM compound, 37° C. The procedure:
Binding experiments were carried out using biosensor technology on BlAcore2000 (Biacore) and sensor chips SA™ with pre-immobilized streptavidin. The binding experiment was carried out at 37° C. following the procedures of the manufacturer. The binding buffer B (20 mM HEPES at pH 7.5) contained 50 mM NaCI, 10 mM MgCl2 and 5 mM DTT. First, the 3′-biotinylated oligonucleotide 5′-[…]-3′ was bound to the sensor chip. Subsequently, the complementary 35-mer 5′-[…]-3′ was hybridized to the captured oligonucleotide, resulting in an integrase recognition sequence at the free end. HIV-1 integrase (100 μl of a 33 μM solution) diluted 10-fold in dilution buffer (10 mM Tris.HCl, pH7.5/750 mM NaCl/10% glycerol/1 mM β-mercaptoethanol) and another 10-fold in buffer B, was injected at a final concentration of 330 nM with a flow rate of 10 μl/minute passing first a blank channel and then the channel with the specific oligonucleotide. A specific adsorption in the blank channel was subtracted.

Data set [4] deals with recombinant His-tagged HIV-1 integrase (Human immunodeficiency virus type 1 group M subtype B, UniProt P04585). In words: HIV-1 integrase 3′-processing assay, oligonucleotide-based.
Experimental: Reactions were started by the addition of the enzyme. Inhibitors were incubated shortly with the reaction components before the addition of integrase. Reactions were allowed to proceed at 37° C. for 7 minutes and stopped by the addition of formamide loading buffer (95% formamide, 30 mM ethylenediamine tetraacetic acid, 0.1% xylene cyanol, 0.1% bromophenol blue, 0.1% sodium dilaurylsulfate SDS). In the overall integration assay, this reaction was allowed to proceed for 60 minutes before the addition of a formamide dye.
Where [5] appears, read: Human immunodeficiency virus 1, NL43.

On to `O=[N+]([O-])c1ccc(C2c3c(O)nc(S)nc3Oc3nc(S)nc(O)c32)cc1` [compound H, 5-(4-nitrophenyl)-2,8-dithiol-4,6-dihydroxy-5H-pyrano[2,3-d:6,5-d′]dipyrimidine], for which the EC50 was 11.4 µM with HIV-1(IIIB) (Human immunodeficiency virus 1, IIIB, MT4, 120 h); 8.9 ± 0.7 µM in the data set on HIV-1(IIIB); 3.7 ± 1.8 µM with HIV-1 L1; 30 ± 6.2 µM with HIV-2 (ROD); 19.4 ± 1.4 µM with HIV-1 NL43/DS5000 (setting [5]); 19.1 ± 1.4 µM in the data set with HIV-1 NL43/AMD3100 (setting [5]). Moreover, the EC50 is 6 ± 2.3 µM in the data set with HIV-1 L2 (Human immunodeficiency virus 1), 11.7 ± 0.7 µM in the data set on HIV-1 L4 (Human immunodeficiency virus 1) and 17 µM in data set [2]. The “activity against the replication of HIV-1(IIIB)” value in the data set with HIV-1(IIIB) (in words) is “active”. Besides, it took 121 µM to reach half-maximal cytotoxicity in data set [1] (CC50 at 5 days). Further, the “fold increase in EC50” value with HIV-1 NL43/DS5000 (NL43/DS5000 versus wild type strain NL4.3) came out at 1.3; in the data set on HIV-1 NL43/AMD3100 (NL43/AMD3100 versus wild type strain NL4.3), 1.3; in the data set with HIV-1 L2 (L2 versus wild type strain L1), 1.6; with HIV-1 L4 (L4 versus wild type strain L1) it was 3.2. For the same compound, in the data set on HIV-1 NL43/DS5000 (in words), the “activity against HIV-1 strain resistant to dextran sulfate” value is “active”. In the data set with HIV-1 NL43/AMD3100 (in words), the “activity against HIV-1 strain resistant to bicyclam” value is reported as “active”. In the data set on HIV-1, the “added values FICnevirapine+FICV-165” value is recorded as “below 0.5”. Moreover, the IC50 in data set [3] (IC50 Poly(A).oligo(dT), template-primer poly(A).oligo(dT)) was determined as 24.6 ± 7.2 µM; in [3] (IC50 poly(C).oligo(dG), template-primer poly(C).oligo(dG)), 4.8 ± 2.2 µM; in data set [4], 0.9 ± 0.4 µM. In addition, the “rate constant for the conversion of ISC into the cleaved product” value at integrase was found to be 0.147 ± 0.025 min⁻¹. The “binding of integrase to the DNA” value on HIV-1 integrase is “completely abolished”. Further, the “inhibition of the 3-processing reaction” value in data set [4] (in words) was “inhibited”.

Source of the values: patent US20030187003A1, “Pharmaceutical compositions and method for the treatment of retroviral infections” (priority 2000, published 2003).
